Reference: patent EP1166782A2, “Anti-retroviral pharmaceutical compositions” (Yang, Chi-Chiang, priority 2000, dated 2002)
Read-outs that look alike come from different tables or passages of the source.

Assays:
[1] = system: macrophage-tropic (NL-43); assay: P24 quantification (P24 EIA) in infected PBMCs, NL-43; type: cell-based, HIV-1; settings: PBMC; for concentrations of the viral P24 antigen, NL43(+): (+) original concentration of compound maintained after washing; for concentrations of the viral P24 antigen, NL43(-): (-) compound removed after washing
Description: (§1) PBMCs were treated with various concentrations of CAPE, MC and PEDMC provided in Example 2 and simultaneously infected with […] and macrophage and T cells dual tropic (89.6) HIV-1 isolates. The next day, the added compounds were removed by washing methods or maintained at the same concentration. Samples were divided into two groups and the upernatants of the culture medium were collected at the 3 and 7 days after infection, respectively. The use of P24 EIA Reagent Kit of Abbott Laboratory compares the concentrations of viral P24 antigen with or without the compounds tested.

[2] = system: macrophage and T cells dual tropic (89.6); assay: P24 quantification (P24 EIA) in infected PBMCs, 89.6; type: cell-based, HIV-1; settings: PBMC; for concentrations of the viral P24 antigen, 89.6(+): (+) original concentration of compound maintained after washing; for concentrations of the viral P24 antigen, 89.6(-): (-) compound removed after washing
Description: as §1

[3] = system: Peripheral Blood Mononuclear Cells (PBMC); settings: for The numbers of dead cells in 400 cells' count / % viability: 48 hours; for The numbers of dead cells in 400 cells' count: control 9 dead cells; for % viability: viable cells versus control (391);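 for all read-outs here: trypan blue dye exclusion, cells stained and counted from quadruplicate dishes, DMSO vehicle kept under 0.5%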
[4] = system: various HIV isolates (NL-43, JRCSF or 89.6); assay: P24 quantification, summary statements over all isolates; type: cell-based, HIV-1
Description: as §1

[5] = system: T cells-tropic (JRCSF); assay: P24 quantification (P24 EIA) in infected PBMCs, JRCSF; type: cell-based, HIV-1; settings: PBMC; for concentrations of the viral P24 antigen, JRCSF(+): (+) original concentration of compound maintained after washing; for concentrations of the viral P24 antigen, JRCSF(-): (-) compound removed after washing
Description: as §1

For COC(=O)/C=C/c1ccc(O)c(O)c1 [MC, methyl caffeate], the “concentrations of the viral P24 antigen, NL43(+)” value (“concentrations … NL43(+)” for short) ([1]; 0.1 µM) was 1000 unit, the “concentrations of the viral P24 antigen, NL43(-)” value (from here on “concentrations … NL43(-)”) ([1]; 0.1 µM) was 1000 unit and the “concentrations … NL43(+)” value ([1]; 0.5 µM) was 1000 unit. For the same compound, the “concentrations … NL43(-)” value ([1]; 0.5 µM) was 1000 unit, the “concentrations … NL43(+)” value ([1]; 1 µM) was 1000 unit and the “concentrations … NL43(-)” value ([1]; 1 µM) was 1000 unit. The “concentrations … NL43(+)” value ([1]; 5 µM) was 1000 unit, the “concentrations … NL43(-)” value ([1]; 5 µM) was 1000 unit and the “concentrations … NL43(+)” value ([1]; 10 µM) was 1000 unit. The “concentrations … NL43(-)” value ([1]; 10 µM) was 1000 unit, the “concentrations … NL43(+)” value ([1]; 25 µM) was 220.63 unit and the “concentrations … NL43(-)” value ([1]; 25 µM) was 1000 unit. For the same compound, the “concentrations … NL43(+)” value ([1]; 50 µM) was 273.07 unit, the “concentrations … NL43(-)” value ([1]; 50 µM) was 922.63 unit and the “concentrations … NL43(+)” value ([1]; 100 µM) was 0 unit. The “concentrations … NL43(-)” value ([1]; 100 µM) was 687.24 unit, the “concentrations … NL43(+)” value ([1]; 200 µM) was 0 unit and the “concentrations … NL43(-)” value ([1]; 200 µM) was 518.45 unit. For the same compound, the “concentrations … NL43(+)” value ([1]; 400 µM) was 0 unit, the “concentrations … NL43(-)” value ([1]; 400 µM) was 2.53 unit and the “concentrations of the viral P24 antigen, 89.6(+)” value (from here on “concentrations … 89.6(+)”) ([2]; 0.1 µM) was 1000 unit. The “concentrations of the viral P24 antigen, 89.6(-)” value (from here on “concentrations … 89.6(-)”) ([2]; 0.1 µM) was 1000 unit, the “concentrations … 89.6(+)” value ([2]; 0.5 µM) was 954.88 unit and the “concentrations … 89.6(-)” value ([2]; 0.5 µM) was 1000 unit. The “concentrations … 89.6(+)” value ([2]; 1 µM) was 149.67 unit, the “concentrations … 89.6(-)” value ([2]; 1 µM) was 966.67 unit and the “concentrations … 89.6(+)” value ([2]; 5 µM) was 66.78 unit. For the same compound, the “concentrations … 89.6(-)” value ([2]; 5 µM) was 1000 unit, the “concentrations … 89.6(+)” value ([2]; 10 µM) was 14.36 unit and the “concentrations … 89.6(-)” value ([2]; 10 µM) was 624.39 unit. For the same compound, the “concentrations … 89.6(+)” value ([2]; 25 µM) was 5.2 unit, the “concentrations … 89.6(-)” value ([2]; 25 µM) was 504.42 unit and the “concentrations … 89.6(+)” value ([2]; 50 µM) was 18.4 unit. The “concentrations … 89.6(-)” value ([2]; 50 µM) was 286.46 unit, the “concentrations … 89.6(+)” value ([2]; 100 µM) was 8.91 unit and the “concentrations … 89.6(-)” value ([2]; 100 µM) was 278.43 unit. For the same compound, the “concentrations … 89.6(+)” value ([2]; 200 µM) was 0 unit, the “concentrations … 89.6(-)” value ([2]; 200 µM) was 124.97 unit and the “concentrations … 89.6(+)” value ([2]; 400 µM) was 0 unit. For the same compound, the “concentrations … 89.6(-)” value ([2]; 400 µM) was 0 unit, the “The numbers of dead cells in 400 cells' count” value (from here on “The numbers of dead cells”) ([3]; 0.1 µM) was 9 and the “% viability” value ([3]; 0.1 µM) was 391/391 (100%). For the same compound, the “The numbers of dead cells” value ([3]; 0.5 µM) was 7, the “% viability” value ([3]; 0.5 µM) was 393/391 (100.5%) and the “The numbers of dead cells” value ([3]; 1 µM) was 12. For the same compound, the “% viability” value ([3]; 1 µM) was 388/391 (99.2%), the “The numbers of dead cells” value ([3]; 5 µM) was 9 and the “% viability” value ([3]; 5 µM) was 391/391 (100%). For the same compound, the “The numbers of dead cells” value ([3]; 10 µM) was 7, the “% viability” value ([3]; 10 µM) was 393/391 (100.5%) and the “The numbers of dead cells” value ([3]; 25 µM) was 11. For the same compound, the “% viability” value ([3]; 25 µM) was 389/391 (99.5%), the “The numbers of dead cells” value ([3]; 50 µM) was 11 and the “% viability” value ([3]; 50 µM) was 389/391 (99.5%). The “The numbers of dead cells” value ([3]; 100 µM) was 7, the “% viability” value ([3]; 100 µM) was 393/391 (100.5%) and the “The numbers of dead cells” value ([3]; 200 µM) was 8. The “% viability” value ([3]; 200 µM) was 392/391 (100.3%), the “The numbers of dead cells” value ([3]; 400 µM) was 7 and the “% viability” value ([3]; 400 µM) was 393/391 (100.5%). For the same compound, the “viabilities of PBMC under high-dose versus low-dose treatments (result in words)” value ([3]; high dose up to 400 µM compared with 0.1-10 µM) was “no substantial differences”, the “viral replications (result in words)” value ([4]; Figures 3-5, PBMC infected with NL-43, JRCSF or 89.6) was “significantly inhibited viral replications” and the inhibit viral replication ([4]; at the concentration of 100 µM or less, various HIV isolates) was 100%. The “concentrations of the viral P24 antigen, JRCSF(+)” value (shortened to “concentrations … JRCSF(+)”) ([5]; 0.1 µM) was 1000 unit, the “concentrations of the viral P24 antigen, JRCSF(-)” value (“concentrations … JRCSF(-)” below) ([5]; 0.1 µM) was 1000 unit and the “concentrations … JRCSF(+)” value ([5]; 0.5 µM) was 1000 unit. The “concentrations … JRCSF(-)” value ([5]; 0.5 µM) was 1000 unit, the “concentrations … JRCSF(+)” value ([5]; 1 µM) was 1000 unit and the “concentrations … JRCSF(-)” value ([5]; 1 µM) was 1000 unit. The “concentrations … JRCSF(+)” value ([5]; 5 µM) was 58.13 unit, the “concentrations … JRCSF(-)” value ([5]; 5 µM) was 1000 unit and the “concentrations … JRCSF(+)” value ([5]; 10 µM) was 2.53 unit. The “concentrations … JRCSF(-)” value ([5]; 10 µM) was 828.46 unit, the “concentrations … JRCSF(+)” value ([5]; 25 µM) was 2.33 unit and the “concentrations … JRCSF(-)” value ([5]; 25 µM) was 786.67 unit. For the same compound, the “concentrations … JRCSF(+)” value ([5]; 50 µM) was 0 unit, the “concentrations … JRCSF(-)” value ([5]; 50 µM) was 42.64 unit and the “concentrations … JRCSF(+)” value ([5]; 100 µM) was 0 unit. For the same compound, the “concentrations … JRCSF(-)” value ([5]; 100 µM) was 0 unit, the “concentrations … JRCSF(+)” value ([5]; 200 µM) was 0 unit and the “concentrations … JRCSF(-)” value ([5]; 200 µM) was 0 unit. For the same compound, the “concentrations … JRCSF(+)” value ([5]; 400 µM) was 0 unit and the “concentrations … JRCSF(-)” value ([5]; 400 µM) was 0 unit.
